biological target: recombinant PARP1 (AA662-1014) protein (Homo sapiens (Human), UniProt P09874); assay: Tracer displacement fluorescence polarization assay; settings: displacement of AlexaFluor488 tracer from NAD+-binding site, PARP1 25 nM
Method: Example B. Tracer Displacement Fluorescence Polarization Assays
Displacement of AlexaFlour488 marked tracer from the NAD+-binding site of recombinant PARP1 (AA662-1014) protein (OriGene, Cat #: AR09368PU-L) was measured in vitro using Fluorescence polarization assay. The reaction was carried out in assay buffer (50 mM TRIS-HCl pH 7.4-7.8, 150 mM NaCl, 10 mM MgCl2, 0.001% Triton-X). 2×PARP1 (final concentration 25 nM) was diluted in 1× Assay buffer and 10 μl of the solution per well was added into 384-well Black Non-Treated Reaction plate (Corning, Cat #4511). Plates were centrifuged for 1 min at 200 g. The compounds were prepared in a 384-well Diamond Well Plate (Axygen, Cat #P-384-120SQ-C-S) as 400× solutions in DMSO and were transferred into Reaction plate using the Biomek FX liquid handling system with intermediate dilution down to 10× working solution in assay buffer in a separate 384-well Diamond Well Plate (Axygen, Cat #P-384-120SQ-C-S) (2 μl per well). Plates were centrifuged for 1 min at 200 g and incubated for 15 min at room temperature in the dark. Then 8 μL per well of 2.5× Tracer AlexaFluor488 (final concentration 1 nM) diluted in 1× Assay buffer was added into Reaction plate. 1× Assay buffer was used to make blank samples for instrument calculations. Plates were incubated for 30 minutes at room temperature in the dark. Fluorescence polarization was measured using Microplate Reader (BMG, ClarioStar Plus). The % tracer displacement was used to calculate the IC50 values. The IC50 values are shown in Table A, wherein “A” corresponds to IC50<0.01 μM, “B” corresponds to 0.01 μM≤IC50<0.1 μM, “C” 0.1 μM≤IC50<[…], and “D” corresponds to […].

recombinant PARP1 (AA662-1014) protein, sequence (P09874 662-1014): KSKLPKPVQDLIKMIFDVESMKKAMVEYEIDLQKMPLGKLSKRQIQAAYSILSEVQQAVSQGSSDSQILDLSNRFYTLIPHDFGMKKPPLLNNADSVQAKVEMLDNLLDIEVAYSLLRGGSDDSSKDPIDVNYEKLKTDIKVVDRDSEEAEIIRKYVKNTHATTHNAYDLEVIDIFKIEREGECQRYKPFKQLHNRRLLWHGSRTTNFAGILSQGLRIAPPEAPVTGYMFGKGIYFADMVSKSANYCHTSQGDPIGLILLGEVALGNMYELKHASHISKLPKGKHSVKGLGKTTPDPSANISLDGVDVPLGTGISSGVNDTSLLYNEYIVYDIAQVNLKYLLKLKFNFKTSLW

SMILES	EC50 [nM]
Cn1c(=O)c2cnc(Nc3ccc(N4CCN(C(=O)c5cc(Cc6n[nH]c(=O)c7ccccc67)ccc5F)CC4)cc3)nc2n1-c1cccc(C(C)(C)O)n1 [Compound 7, 4-[4-Fluoro-3-({4-[4-({1-[6-(1-hydroxy-1-methylethyl)pyridin-2-yl]-2-methyl-3-oxo-2,3-dihydro-1H-pyrazolo[3,4-d]pyrimidin-6-yl}amino)phenyl]piperazin-1-yl}carbonyl)benzyl]phthalazin-1(2H)-one]	< 10
C=CCn1c(=O)c2cnc(Nc3ccc(N4CCN(C(=O)c5cc(Cn6c(=O)[nH]c(=O)c7c(F)cccc76)ccc5F)CC4)cc3)nc2n1-c1ccccn1 [Compound 28, 1-{3-[(4-{4-[(2-Allyl-3-oxo-1-pyridin-2-yl-2,3-dihydro-1H-pyrazolo[3,4-d]pyrimidin-6-yl)amino]phenyl}piperazin-1-yl)carbonyl]-4-fluorobenzyl}-5-fluoroquinazoline-2,4(1H,3H)-dione]	< 10
Cn1c(=O)c2cnc(Nc3ccc(N4CCN(Cc5ccc(-c6[nH]c7cc(F)cc8c7c6CCNC8=O)cc5)CC4)cc3)nc2n1-c1ccccn1 [Compound 36, 8-Fluoro-2-{4-[(4-{4-[(2-methyl-3-oxo-1-pyridin-2-yl-2,3-dihydro-1H-pyrazolo[3,4-d]pyrimidin-6-yl)amino]phenyl}piperazin-1-yl)methyl]phenyl}-1,3,4,5-tetrahydro-6H-azepino[5,4,3-cd]indol-6-one]	< 10
Cn1c(=O)c2cnc(Nc3ccc(N4CCC(c5nc6cccc(C(N)=O)c6[nH]5)CC4)cc3)nc2n1-c1ccccn1 [Compound 95, 2-[1-[4-[[2-methyl-3-oxo-1-(2-pyridyl)pyrazolo[3,4-d]pyrimidin-6-yl]amino]phenyl]-4-piperidyl]-3H-benzimidazole-4-carboxamide]	10 to 100
C=CCn1c(=O)c2cnc(NC3CCN(C(=O)c4cc(Cc5n[nH]c(=O)c6ccccc56)ccc4F)CC3)nc2n1-c1cccc(C(C)(C)O)n1 [Compound 4, 4-(3-{[4-({2-Allyl-1-[6-(1-hydroxy-1-methylethyl)pyridin-2-yl]-3-oxo-2,3-dihydro-1H-pyrazolo[3,4-d]pyrimidin-6-yl}amino)piperidin-1-yl]carbonyl}-4-fluorobenzyl)phthalazin-1(2H)-one]	100 to 1000
C=CCn1c(=O)c2cnc(N3CCN(Cc4ccc(-c5[nH]c6cc(F)cc7c6c5CCNC7=O)cc4)CC3)nc2n1-c1cccc(C(C)(C)O)n1 [Compound 44, 2-{4-[(4-{2-Allyl-1-[6-(1-hydroxy-1-methylethyl)pyridin-2-yl]-3-oxo-2,3-dihydro-1H-pyrazolo[3,4-d]pyrimidin-6-yl}piperazin-1-yl)methyl]phenyl}-8-fluoro-1,3,4,5-tetrahydro-6H-azepino[5,4,3-cd]indol-6-one]	< 10
Cn1c(=O)c2cnc(Nc3ccc(N4CCN(Cc5cc(Cc6n[nH]c(=O)c7ccccc67)ccc5F)CC4)cc3)nc2n1-c1cccc(C(C)(C)O)n1 [Compound 8, 4-[4-Fluoro-3-({4-[4-({1-[6-(1-hydroxy-1-methylethyl)pyridin-2-yl]-2-methyl-3-oxo-2,3-dihydro-1H-pyrazolo[3,4-d]pyrimidin-6-yl}amino)phenyl]piperazin-1-yl}methyl)benzyl]phthalazin-1(2H)-one]	100 to 1000
C=CCn1c(=O)c2cnc(Nc3ccc(N4CCN(Cc5cc(Cn6c(=O)[nH]c(=O)c7c(F)cccc76)ccc5F)CC4)cc3)nc2n1-c1cccc(C(C)(C)O)n1 [Compound 34, 1-[3-({4-[4-({2-Allyl-1-[6-(1-hydroxy-1-methylethyl)pyridin-2-yl]-3-oxo-2,3-dihydro-1H-pyrazolo[3,4-d]pyrimidin-6-yl}amino)phenyl]piperazin-1-yl}methyl)-4-fluorobenzyl]-5-fluoroquinazoline-2,4(1H,3H)-dione]	100 to 1000
C=CCn1c(=O)c2cnc(NCCNC(=O)c3cc(Cc4n[nH]c(=O)c5ccccc45)ccc3F)nc2n1-c1cccc(C(C)(C)O)n1 [Compound 6, N-[2-({2-Allyl-1-[6-(1-hydroxy-1-methylethyl)pyridin-2-yl]-3-oxo-2,3-dihydro-1H-pyrazolo[3,4-d]pyrimidin-6-yl}amino)ethyl]-2-fluoro-5-[(4-oxo-3,4-dihydrophthalazin-1-yl)methyl]benzamide]	100 to 1000
C=CCn1c(=O)c2cnc(N3CCN(C(=O)c4cc(Cc5n[nH]c(=O)c6ccccc56)ccc4F)CC3)nc2n1-c1cccc(C(C)(C)O)n1 [Compound 2, 4-{3-[(4-{2-Allyl-1-[6-(1-hydroxy-1-methylethyl)pyridin-2-yl]-3-oxo-2,3-dihydro-1H-pyrazolo[3,4-d]pyrimidin-6-yl}piperazin-1-yl)carbonyl]-4-fluorobenzyl}phthalazin-1(2H)-one]	10 to 100
C=CCn1c(=O)c2cnc(NC3CCN(Cc4ccc(-c5[nH]c6cc(F)cc7c6c5CCNC7=O)cc4)CC3)nc2n1-c1cccc(C(C)(C)O)n1 [Compound 47, 2-(4-{[4-({2-Allyl-1-[6-(1-hydroxy-1-methylethyl)pyridin-2-yl]-3-oxo-2,3-dihydro-1H-pyrazolo[3,4-d]pyrimidin-6-yl}amino)piperidin-1-yl]methyl}phenyl)-8-fluoro-1,3,4,5-tetrahydro-6H-azepino[5,4,3-cd]indol-6-one]	< 10
Cn1c(=O)c2cnc(N3CCN(C(=O)c4cc(Cc5n[nH]c(=O)c6ccccc56)ccc4F)CC3)nc2n1-c1ccccn1 [Compound 5, 4-(4-Fluoro-3-{[4-(2-methyl-3-oxo-1-pyridin-2-yl-2,3-dihydro-1H-pyrazolo[3,4-d]pyrimidin-6-yl)piperazin-1-yl]carbonyl}benzyl)phthalazin-1(21)-one]	10 to 100
Cn1c2nc(Nc3ccc(N4CCN(C(=O)c5cc(Cc6n[nH]c(=O)c7ccccc67)ccc5F)CC4)cc3)ncc2c(=O)n1-c1ccccn1 [Compound 12, 4-{4-Fluoro-3-[(4-{4-[(1-methyl-3-oxo-2-pyridin-2-yl-2,3-dihydro-1H-pyrazolo[3,4-d]pyrimidin-6-yl)amino]phenyl}piperazin-1-yl)carbonyl]benzyl}phthalazin-1(2H)-one]	< 10
Cn1c2nc(Nc3ccc(N4CCN(C(=O)c5cc(Cn6c(=O)[nH]c(=O)c7c(F)cccc76)ccc5F)CC4)cc3)ncc2c(=O)n1-c1ccccn1 [Compound 17, 5-Fluoro-1-{4-fluoro-3-[(4-{4-[(1-methyl-3-oxo-2-pyridin-2-yl-2,3-dihydro-1H-pyrazolo[3,4-d]pyrimidin-6-yl)amino]phenyl}piperazin-1-yl)carbonyl]benzyl}quinazoline-2,4(1H,3H)-dione]	< 10
Cn1c2nc(Nc3ccc(N4CCC(c5nc6cccc(C(N)=O)c6[nH]5)CC4)cc3)ncc2c(=O)n1-c1ccccn1 [Compound 91]	10 to 100
C=CCn1c(=O)c2cnc(Nc3ccc(N4CCN(Cc5ccc(-c6[nH]c7cc(F)cc8c7c6CCNC8=O)cc5)CC4)cc3)nc2n1-c1ccccn1 [Compound 39, 2-[4-[[4-[4-[[2-Allyl-3-oxo-1-(2-pyridyl)pyrazolo[3,4-d]pyrimidin-6-yl]amino]phenyl]piperazin-1-yl]methyl]phenyl]-6-fluoro-3,10-diazatricyclo[6.4.1.04,13]trideca-1,4,6,8(13)-tetraen-9-one]	10 to 100

biological target: recombinant Wee1 protein (Homo sapiens (Human), UniProt P30291); assay: Wee1 enzymatic activity inhibition, ADP-Glo luminescence assay; assay type: biochemical; settings: recombinant Wee1, PolyE4Y1 substrate, 1 h room temperature
Sequence (P30291 whole entry): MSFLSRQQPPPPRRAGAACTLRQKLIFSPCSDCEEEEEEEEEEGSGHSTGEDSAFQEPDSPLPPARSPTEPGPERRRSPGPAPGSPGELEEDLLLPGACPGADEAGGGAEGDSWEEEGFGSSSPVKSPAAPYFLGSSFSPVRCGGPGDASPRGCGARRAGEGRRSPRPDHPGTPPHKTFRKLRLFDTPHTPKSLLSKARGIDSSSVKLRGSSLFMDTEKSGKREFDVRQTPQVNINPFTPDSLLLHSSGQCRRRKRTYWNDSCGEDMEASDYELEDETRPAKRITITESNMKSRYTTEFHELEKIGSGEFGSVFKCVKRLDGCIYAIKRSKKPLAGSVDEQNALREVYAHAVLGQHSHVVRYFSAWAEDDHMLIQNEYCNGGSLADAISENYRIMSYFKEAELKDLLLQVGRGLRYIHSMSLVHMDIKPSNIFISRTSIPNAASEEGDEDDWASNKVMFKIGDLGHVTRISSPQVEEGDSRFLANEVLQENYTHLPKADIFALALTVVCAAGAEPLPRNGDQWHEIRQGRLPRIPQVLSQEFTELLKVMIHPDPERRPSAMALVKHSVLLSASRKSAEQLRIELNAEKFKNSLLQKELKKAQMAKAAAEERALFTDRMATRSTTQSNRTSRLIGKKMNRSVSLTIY
Method: Example A. Primary Assay Used to Determine Potency of Wee1 Enzymatic Activity Inhibition
Compound activity was determined using recombinant Wee1 protein (BPS, Cat #40412) and PolyE4Y1 Substrate (Poly(Glu,Tyr) sodium salt, Sigma, Cat #P0275-25MG) in an in vitro enzymatic reaction. The enzymatic assay used to determine activity was a Luminescence assay using a Microplate Reader (BMG, ClarioStar Plus). The enzymatic reaction was carried out in assay buffer (40 mM TRIS-HCl pH 7.4-7.6, 20 mM MgCl2, 0.05 mM DTT, 0.1 mg/ml BSA, 5 mM MnCl2). The compounds were dispensed on a 384 well Diamond Well Plate (Axigen, Cat #P-384-120SQ-C-S) using the Biomek FX liquid handling system at 100× solutions of compounds in DMSO. 2×Wee1-PolyE4Y1 mix (final concentration 0.85 ng/μl of Wee1 and 0.2 μg/μl of PolyE4Y1) was prepared in 1× Assay buffer and 5.5 μl of mixture per well was added into 384w white Reaction plate with NBS (Corning, Cat #4513). 5.5 μl of PolyE4Y1 substrate w/o Wee1 in 1× buffer was used for negative control. Plates were centrifuged for 1 min at 100 g. Next step the Compounds were added to Reaction plate using Biomek station via following steps: 1 μl of 100× compounds (in DMSO) were mixed thoroughly with 49 μl of 2×10 μM ATP in Assay Buffer, then 5.5 μl of this mixture was added to Reaction plate with 5.5 μl of Wee1-PolyE4Y1 mix. Plates were centrifuged for 1 min at 100 g and incubated for 1 h at room temperature. Next 3 μL of ADP-Glo reagent (Promega, ADP-Glo™ Kinase Assay, Cat #V9102) per well was added. Plates were incubated for 30 minutes at room temperature. Then 6 μL of Kinase detection reagent (Promega, ADP-Glo™ Kinase Assay, Cat #V9102) per well was added and the Luminescence was measured using Microplate Reader. The % inhibition was then used to calculate the IC50 values. The IC50 values are shown in Table A, wherein “A” corresponds to IC50<0.01 μM, “B” corresponds to 0.01 μM≤IC50<0.1 μM, “C” 0.1 μM≤IC50<1 μM, and “D” corresponds to […].

SMILES	EC50 [nM]
Cn1c(=O)c2cnc(Nc3ccc(N4CCN(Cc5ccc(-c6[nH]c7cc(F)cc8c7c6CCNC8=O)cc5)CC4)cc3)nc2n1-c1ccccn1 [Compound 36, 8-Fluoro-2-{4-[(4-{4-[(2-methyl-3-oxo-1-pyridin-2-yl-2,3-dihydro-1H-pyrazolo[3,4-d]pyrimidin-6-yl)amino]phenyl}piperazin-1-yl)methyl]phenyl}-1,3,4,5-tetrahydro-6H-azepino[5,4,3-cd]indol-6-one]	10 to 100
Cn1c(=O)c2cnc(Nc3ccc(N4CCC(c5nc6cccc(C(N)=O)c6[nH]5)CC4)cc3)nc2n1-c1ccccn1 [Compound 95, 2-[1-[4-[[2-methyl-3-oxo-1-(2-pyridyl)pyrazolo[3,4-d]pyrimidin-6-yl]amino]phenyl]-4-piperidyl]-3H-benzimidazole-4-carboxamide]	10 to 100
C=CCn1c(=O)c2cnc(N3CCN(Cc4ccc(-c5[nH]c6cc(F)cc7c6c5CCNC7=O)cc4)CC3)nc2n1-c1cccc(C(C)(C)O)n1 [Compound 44, 2-{4-[(4-{2-Allyl-1-[6-(1-hydroxy-1-methylethyl)pyridin-2-yl]-3-oxo-2,3-dihydro-1H-pyrazolo[3,4-d]pyrimidin-6-yl}piperazin-1-yl)methyl]phenyl}-8-fluoro-1,3,4,5-tetrahydro-6H-azepino[5,4,3-cd]indol-6-one]	≥ 1
